# Experimental data reported in patent EP0067711A2, “New 1-benzyl-3,4-dihydro-isoquinoline derivative” (CHINOIN Gyogyszer és Vegyészeti Termékek Gyára RT., priority 1981, dated 1982).
# How the values were obtained:
# [1] = tested on: haemodynamic and cardiovascular system; experiment: general effects on the haemodynamic and cardiovascular system in pentobarbital anaesthetized dogs; assay type: in vivo; set-up: A. vertebralis flow, Changed value: unit not given here; details: 1 mg/kg i.v.
# [2] = tested on: electric fibrillation threshold of the auricle and ventricle; experiment: antiarrhythmial effect: change of electric fibrillation threshold in chloralose-urethane anaesthetized cats; assay type: in vivo; details: 1 mg/kg i.v.
# Procedure: The antiarrhythmial effect is determined on chloralose-urethane anaesthetized cats [500/300 mg/kg i.p.] by measuring the changes of the electric fibrillation threshold of the auricle and ventricle respectively [method of Szekeres, Méhes and Papp: Brit. 0. Pharmacol. 17, 167 (1961) and that of Szekeres and Papp: Hdb. exp. Pharmacol. 16/3, 131 (1975) respectively]. The general effects exerted on the haemodynamic and cardiovascular system are tested on pentobarbital anaesthetized dogs (35 mg/kg i.v.).
# [3] = tested on: acute coronary insufficiency induced by vasopressine; experiment: anti-angina activity: inhibition of vasopressine-induced acute coronary insufficiency (rise of T-wave on ECG), method of Papp and Szekeres; assay type: in vivo, rats belonging to the CFY strain; details: vasopressine 2 IU/kg i.v., pentobarbital anaesthetized CFY rats; papaverin = 1
structure (smiles),measurement,setting,value
"CCOc1cc(CC2=NCCc3cc(OCC)c(OCC)cc32)ccc1O [Formula VII, 6,7-diethoxy-1-(3-ethoxy-4-hydroxy-benzyl)-3,4-dihydro-isoquinoline, reference compound]","A. carotis flow, Duration of effect",[1],12 min
same,"A. carotis flow, Percental difference",[1],-12
same,"A. carotis resistance, Duration of effect",[1],15 min
same,"A. femoralis flow, Duration of effect",[1],11 min
same,"A. femoralis resistance, Duration of effect",[1],18 min
same,"A. vertebralis flow, Duration of effect",[1],7 min
same,"A. vertebralis resistance, Duration of effect",[1],12 min
same,"A. vertebralis resistance, Percental difference",[1],+12
same,"Arterial blood pressure, Duration of effect",[1],8 min
same,"Arterial blood pressure, Percental difference",[1],-22
same,"Contractibility of the left ventricle (dp/dt), Percental difference",[1],-13
same,"Coronary flow, Duration of effect",[1],15 min
same,"Coronary flow, Percental difference",[1],+18
same,"Coronary resistance, Duration of effect",[1],11 min
same,"Coronary resistance, Percental difference",[1],-22
same,"Efficiency of cardial function, Duration of effect",[1],20 min
same,"Efficiency of cardial function, Percental difference",[1],-13
same,"Frequence volume, Duration of effect",[1],5 min
same,"Function of the left ventricle, Duration of effect",[1],13 min
same,"Function of the left ventricle, Percental difference",[1],-19
same,"Heart frequence/min, Duration of effect",[1],7 min
same,"Minute volume, Duration of effect",[1],3 min
same,"Myocardial oxygenization (O2 supply per O2 consumption), Duration of effect",[1],18 min
same,"Myocardial oxygenization (O2 supply per O2 consumption), Percental difference",[1],+10
same,"Oxygen consumption of the left ventricle, Duration of effect",[1],9 min
same,"Total peripherial resistance, Duration of effect",[1],14 min
same,"Total peripherial resistance, Percental difference",[1],-32
same,"Efficiency of cardial function, Changed value","[1]; average + S.E., basic value 0.32 ± 0.03",0.28 ± 0.05 mkg/ml/100 g
same,"Coronary resistance, Changed value","[1]; average + S.E., basic value 1.03 ± 0.10",1.42 ± 0.22 Hgmm/ml/min/100 g
same,"Myocardial oxygenization (O2 supply per O2 consumption), Changed value","[1]; average + S.E., basic value 1.62 ± 0.06",1.79 ± 0.10
same,"A. carotis resistance, Changed value","[1]; average + S.E., basic value 2.04 ± 0.3",2.19 ± 0.4 Hgmm/ml/min
same,"Function of the left ventricle, Changed value","[1]; average + S.E., basic value 2.74 ± 0.49",2.22 ± 0.56 mkg/min
same,"A. vertebralis resistance, Changed value","[1]; average + S.E., basic value 3.22 ± 0.61",3.65 ± 0.32 Hgmm/ml/min
same,"A. femoralis resistance, Changed value","[1]; average + S.E., basic value 3.48 ± 0.45",3.69 ± 0.68 Hgmm/ml/min
same,"Frequence volume, Changed value","[1]; average + S.E., basic value 8,8 ± 1",9.5 ± 1.2 mL
same,"Oxygen consumption of the left ventricle, Changed value","[1]; average + S.E., basic value 8.4 ± 0.9",7.9 ± 1.9 ml/min/100 g
same,"A. femoralis flow, Changed value","[1]; average + S.E., basic value 46 ± 5",42 ± 5 mL/min
same,"A. vertebralis flow, Changed value","[1]; average + S.E., basic value 54 ± 9",50 ± 7
same,"Coronary flow, Changed value","[1]; average + S.E., basic value 73 ± 13",86 ± 13 ml/min/100 g
same,"A. carotis flow, Changed value","[1]; average + S.E., basic value 91 ± 9",80 ± 10 mL/min
same,"Arterial blood pressure, Changed value","[1]; average + S.E., basic value 147 ± 9",115 ± 11 Hgmm
same,"Heart frequence/min, Changed value","[1]; average + S.E., basic value 173 ± 8",160 ± 9 min⁻¹
same,"Minute volume, Changed value","[1]; average + S.E., basic value 1500 ± 153",1466 ± 233 mL/min
same,"Contractibility of the left ventricle (dp/dt), Changed value","[1]; average + S.E., basic value 5625 ± 557",4883 ± 419 Hgmm/sec
same,"Total peripherial resistance, Changed value","[1]; average + S.E., basic value 7015 ± 238",4785 ± 275 dyn. sec. cm^-5
same,"Arterial blood pressure, Duration of effect",[2],5 min
same,"Arterial blood pressure, Percental difference",[2],-23
same,"Auricle fibrillation threshold, Duration of effect",[2],9 min
same,"Auricle fibrillation threshold, Percental difference",[2],+48
same,"Ventricle fibrillation threshold, Duration of effect",[2],12 min
same,"Ventricle fibrillation threshold, Percental difference",[2],+43
same,"Auricle fibrillation threshold, Changed value","[2]; average + S.E., basic value 0.52 ± 0.07",0.77 ± 0.19 mA
same,"Ventricle fibrillation threshold, Changed value","[2]; average + S.E., basic value 0.70 ± 0.10",1.00 ± 0.18 mA
same,"Arterial blood pressure, Changed value","[2]; average + S.E., basic value 142 ± 11",110 ± 16 Hgmm
same,anti-angina activity related to that of papaverin,[3],1.28
